# Measured values reported in patent US6559101B2, “N- (5, 7-dimethoxy [1, 2, 4] triazolo [1, 5-a] pyrimidin-2-yl) arylsulfonamide compounds and their use as herbicides” (Dow AgroSciences LLC, priority 2000, dated 2003).
# Key:
# [1] = system: Rox orange sorghum (Sorghum bicolor); test: Postemergence herbicidal activity; assay type: in vivo; conditions: scored after 2 weeks, 0 no injury, 100 complete kill
# Summary of the method: (§1)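 Visual injury rating (0 = no injury, 100% = complete kill) taken 2 weeks post-application relative to untreated controls. Compounds applied as foliar spray in an acetone/DMSO-based aqueous carrier with crop oil and surfactant to plants at first or second true leaf stage; 1 ppm corresponds to about 1 g/ha.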
# [2] = system: blackgrass (Alopecurus myosuroides); test: Postemergence herbicidal activity; assay type: in vivo; conditions: scored after 2 weeks, 0 no injury, 100 complete kill
# Summary of the method: as §1
# [3] = system: chickweed (Stellaria media); test: Postemergence herbicidal activity; assay type: in vivo; conditions: scored after 2 weeks, 0 no injury, 100 complete kill
# Summary of the method: as §1
# [4] = system: cocklebur (Xanthium strumarium); test: Postemergence herbicidal activity; assay type: in vivo; conditions: scored after 2 weeks, 0 no injury, 100 complete kill
# Summary of the method: as §1
# [5] = system: giant foxtail (Setaria faberi); test: Postemergence herbicidal activity; assay type: in vivo; conditions: scored after 2 weeks, 0 no injury, 100 complete kill
# Summary of the method: as §1
# [6] = system: lambsquarters (Chenopodium album); test: Postemergence herbicidal activity; assay type: in vivo; conditions: scored after 2 weeks, 0 no injury, 100 complete kill
# Summary of the method: as §1
# [7] = system: morningglory (Ipomoea hederacea); test: Postemergence herbicidal activity; assay type: in vivo; conditions: scored after 2 weeks, 0 no injury, 100 complete kill
# Summary of the method: as §1
# [8] = system: pigweed (Amaranthus retroflexus); test: Postemergence herbicidal activity; assay type: in vivo; conditions: scored after 2 weeks, 0 no injury, 100 complete kill
# Summary of the method: as §1
# [9] = system: velvetleaf (Abutilion theophrasti); test: Postemergence herbicidal activity; assay type: in vivo; conditions: scored after 2 weeks, 0 no injury, 100 complete kill
# Summary of the method: as §1
# [10] = system: viola (Viola tricolor); test: Postemergence herbicidal activity; assay type: in vivo; conditions: scored after 2 weeks, 0 no injury, 100 complete kill
# Summary of the method: as §1
# [11] = system: wild buckwheat (Polygonum convolvulus); test: Postemergence herbicidal activity; assay type: in vivo; conditions: scored after 2 weeks, 0 no injury, 100 complete kill
# Summary of the method: as §1
# [12] = system: wild oats (Avena fatua); test: Postemergence herbicidal activity; assay type: in vivo; conditions: scored after 2 weeks, 0 no injury, 100 complete kill
# Summary of the method: as §1
# [13] = system: Rox orange sorghum (Sorghum bicolor); test: Preemergence herbicidal activity; assay type: in vivo; conditions: 17.5 g/Ha; scored after 3 weeks; 0 no injury, 100 complete kill or no germination
# Summary of the method: (§2)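 Visual rating 3 weeks after treatment, 0-100% injury versus untreated pots, where 100 means complete kill or no germination. Soil of seeded pots was sprayed preemergence with aqueous Tween 155 dilutions of acetone/DMSO stocks, up to 4.48 kg/ha. Plants were grown in a greenhouse at about 23-29 °C day/22-28 °C night with ~15 h light.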
# [14] = system: barnyardgrass (Echinochloa crus-galli); test: Preemergence herbicidal activity; assay type: in vivo; conditions: 17.5 g/Ha; scored after 3 weeks; 0 no injury, 100 complete kill or no germination
# Summary of the method: as §2
# [15] = system: blackgrass (Alopecurus myosuroides); test: Preemergence herbicidal activity; assay type: in vivo; conditions: 17.5 g/Ha; scored after 3 weeks; 0 no injury, 100 complete kill or no germination
# Summary of the method: as §2
# [16] = system: cocklebur (Xanthium strumarium); test: Preemergence herbicidal activity; assay type: in vivo; conditions: 17.5 g/Ha; scored after 3 weeks; 0 no injury, 100 complete kill or no germination
# Summary of the method: as §2
# [17] = system: crabgrass (Digitaria sanguinalis); test: Preemergence herbicidal activity; assay type: in vivo; conditions: 17.5 g/Ha; scored after 3 weeks; 0 no injury, 100 complete kill or no germination
# Summary of the method: as §2
# [18] = system: giant foxtail (Setaria faberi); test: Preemergence herbicidal activity; assay type: in vivo; conditions: 17.5 g/Ha; scored after 3 weeks; 0 no injury, 100 complete kill or no germination
# Summary of the method: as §2
# [19] = system: lambsquarters (Chenopodium album); test: Preemergence herbicidal activity; assay type: in vivo; conditions: 17.5 g/Ha; scored after 3 weeks; 0 no injury, 100 complete kill or no germination
# Summary of the method: as §2
# [20] = system: morningglory (Ipomoea hederacea); test: Preemergence herbicidal activity; assay type: in vivo; conditions: 17.5 g/Ha; scored after 3 weeks; 0 no injury, 100 complete kill or no germination
# Summary of the method: as §2
# [21] = system: pigweed (Amaranthus retroflexus); test: Preemergence herbicidal activity; assay type: in vivo; conditions: 17.5 g/Ha; scored after 3 weeks; 0 no injury, 100 complete kill or no germination
# Summary of the method: as §2
# [22] = system: velvetleaf (Abutilion theophrasti); test: Preemergence herbicidal activity; assay type: in vivo; conditions: 17.5 g/Ha; scored after 3 weeks; 0 no injury, 100 complete kill or no germination
# Summary of the method: as §2
# [23] = system: wild oats (Avena fatua); test: Preemergence herbicidal activity; assay type: in vivo; conditions: 17.5 g/Ha; scored after 3 weeks; 0 no injury, 100 complete kill or no germination
# Summary of the method: as §2
# [24] = system: wild poinsettia (Euphorbia heterophylla); test: Preemergence herbicidal activity; assay type: in vivo; conditions: 17.5 g/Ha; scored after 3 weeks; 0 no injury, 100 complete kill or no germination
# Summary of the method: as §2
smiles,measurement,setting,value
"COc1cc(OC)n2nc(NS(=O)(=O)c3c(Cl)cccc3Cl)nc2n1 [Compound 1, N-(5,7-dimethoxy[1,2,4]triazolo-[1,5-a]pyrimidin-2-yl)-2,6-dichlorobenzene-sulfonamide]",Postemergence herbicidal activity SORBI,[1]; 7.8 ppm,90%
same,Postemergence herbicidal activity ALOMY,[2]; 7.8 ppm,90%
same,Postemergence herbicidal activity STEME,[3]; 7.8 ppm,95%
same,Postemergence herbicidal activity XANST,[4]; 7.8 ppm,85%
same,Postemergence herbicidal activity SETFA,[5]; 7.8 ppm,98%
same,Postemergence herbicidal activity CHEAL,[6]; 7.8 ppm,90%
same,Postemergence herbicidal activity IPOHE,[7]; 7.8 ppm,80%
same,Postemergence herbicidal activity AMARE,[8]; 7.8 ppm,90%
same,Postemergence herbicidal activity ABUTH,[9]; 7.8 ppm,85%
same,Postemergence herbicidal activity VIOTR,[10]; 7.8 ppm,75%
same,Postemergence herbicidal activity POLCO,[11]; 7.8 ppm,95%
same,Postemergence herbicidal activity AVEFA,[12]; 7.8 ppm,95%
same,Preemergence herbicidal activity SORBI,[13],98%
same,Preemergence herbicidal activity ECHCG,[14],98%
same,Preemergence herbicidal activity ALOMY,[15],100%
same,Preemergence herbicidal activity XANST,[16],100%
same,Preemergence herbicidal activity DIGSA,[17],98%
same,Preemergence herbicidal activity SETFA,[18],95%
same,Preemergence herbicidal activity CHEAL,[19],98%
same,Preemergence herbicidal activity IPOHE,[20],80%
same,Preemergence herbicidal activity AMARE,[21],100%
same,Preemergence herbicidal activity ABUTH,[22],99%
same,Preemergence herbicidal activity AVEFA,[23],100%
same,Preemergence herbicidal activity EPHHL,[24],70%
same,melting point,,211 to 213 °C
COc1cc(OC)n2nc(NS(=O)(=O)c3c(OCC(F)(F)F)cccc3C(F)(F)F)nc2n1 [Compound 12],Postemergence herbicidal activity SORBI,[1]; 62.5 ppm,90%
same,Postemergence herbicidal activity ALOMY,[2]; 62.5 ppm,60%
same,Postemergence herbicidal activity STEME,[3]; 62.5 ppm,90%
same,Postemergence herbicidal activity XANST,[4]; 62.5 ppm,100%
same,Postemergence herbicidal activity SETFA,[5]; 62.5 ppm,98%
same,Postemergence herbicidal activity CHEAL,[6]; 62.5 ppm,100%
same,Postemergence herbicidal activity IPOHE,[7]; 62.5 ppm,98%
same,Postemergence herbicidal activity AMARE,[8]; 62.5 ppm,100%
same,Postemergence herbicidal activity ABUTH,[9]; 62.5 ppm,98%
same,Postemergence herbicidal activity VIOTR,[10]; 62.5 ppm,100%
same,Postemergence herbicidal activity POLCO,[11]; 62.5 ppm,98%
same,Postemergence herbicidal activity AVEFA,[12]; 62.5 ppm,70%
same,Preemergence herbicidal activity SORBI,[13],98%
same,Preemergence herbicidal activity ECHCG,[14],100%
same,Preemergence herbicidal activity ALOMY,[15],70%
same,Preemergence herbicidal activity XANST,[16],80%
same,Preemergence herbicidal activity DIGSA,[17],80%
same,Preemergence herbicidal activity SETFA,[18],90%
same,Preemergence herbicidal activity CHEAL,[19],100%
same,Preemergence herbicidal activity IPOHE,[20],90%
same,Preemergence herbicidal activity AMARE,[21],98%
same,Preemergence herbicidal activity ABUTH,[22],70%
same,Preemergence herbicidal activity AVEFA,[23],30%
same,Preemergence herbicidal activity EPHHL,[24],90%
